Reference: US8211436B2, “Anticancer vaccine and diagnostic methods and reagents” (University of Pittsburgh—Of the Commonwealth System of …, priority 2001, dated 2012)

How the values were obtained:
[1] = system: CD8+ T cells from an HLA-A*0201 healthy donor; experiment: IFN-γ ELISPOT, naive CD8+ T cells of a healthy donor primed in vitro to synthetic cyclin B1 peptides; assay type: cell-based, human; conditions: for antigen-specific IFN-γ secretion by CD8+ T cells: healthy HLA-A2.1+ donor, after several rounds of restimulation (fourth)
Method: (§1) IFN-γ ELISPOT Assays. IFN-g ELISPOT assays were conducted as previously described (Herr et al., J. Immunol. Methods, 191(2), 131-42 (1996)). Briefly, nitrocellulose plates (Millipore, Bedford, Mass.) were coated with the anti-IFN-γ capture mAb 1-D1K (MabTech, Stockholm, Sweden) overnight at 4° C. For assays using dendritic cells as APCs, DCs were loaded with […] of the indicated peptides for 2-6 hrs, and mixed with autologous T cells at a DC:T ratio of 1:10 for 20 hours at 37° C. For assays using autologous PBMCs as APCs, PBMCs were irradiated at 3000 Rads, loaded with […] of peptides for 4 hours, and mixed with autologous T cells at an APC:T ratio of 1:5 for 40 hours at 37° C. The T cells were seeded at 3×10^3-1×10^5 cells/well. All assays were done in serum-free AIM-V medium (Gibco Life Technologies, Grand Island, N.Y.). The plates were then washed in PBS+0.1% Tween and stained with anti-IFN-γ mAb 7-B6-1 (Mabtech) for 2 hours at 37° C. The plates were washed, and the avidin-peroxidase complex (Vectastain ABC Kit, Vector Laboratories) was added to the plates for 1 hour. The plates were then developed using AEC (Sigma) substrate, and spots were quantified microscopically with an inverted phase-contrast microscope (Carl Zeiss, Hallbergmoos, Germany) along with a computer-assisted image analysis system (KS ELISPOT). For HLA Class I blocking experiments, the W6/32 antibody was added to the APCs for 30-45 minutes prior to the incubation with the T cells.
(§2) Priming naïve CD8^+ T cells from a healthy donor to cyclin B1 peptides in vitro. Naïve CD8^+ T cells and in vitro generated dendritic cells were purified as described above in Example 1. 2×10^4 dendritic cells were loaded overnight with […]/well peptide in 96-well U-bottom plates (Falcon, Franklin lakes, NJ) and mixed with 2×10^5 autologous naïve CD8^+ T cells the next day in the presence of 2 ng/ml IL-1b (R & D Systems, Minneapolis, Minn.), 20 U/ml IL-2 (DuPont, Wilmington, Del.), and 10 U/ml IL-4 (Schering Plough). Depending on growth kinetics, T cells were fed every 3-4 days with 10 U/ml IL-2 and 5 U/ml IL-4. T cells were restimulated every 7-10 days using peptide-loaded autologous macrophages.

[2] = system: PBMCs from HLA-A*0201 SCCHN patients; experiment: IFN-γ ELISPOT, PBMCs of SCCHN patients with cyclin B1 peptides; assay type: cell-based, human; conditions: for peptide-specific T cells, IFN-γ ELISPOT: SCCHN Patient A, absence of any in vitro stimulation; for HLA Class I-restricted T cell response, IFN-γ ELISPOT: SCCHN Patient B; for T cell response, IFN-γ ELISPOT: SCCHN Patient D; for blocking of the response with anti-Class I antibody: SCCHN Patient C
Method: as §1
(§3) Stimulating CD8^+ T cells from breast cancer and SCCHN patients with cyclin B1 peptides in vitro. PBMCs from cancer patients were X-irradiated at 3000 Rads, loaded with […] of the indicated peptides for 2-4 hours, and mixed with autologous PBMCs in the presence of 20 U/ml IL-2 (DuPont). The T cell cultures were fed every 3-4 days with 10 U/ml IL-2, and restimulated every 10-12 days, if necessary, using peptide-loaded autologous irradiated PBMCs. All T cell cultures were grown in RPMI medium (ICN, Costa Mesa, Calif.) supplemented with 10% human AB sera (Gemini Products, Calabasas, Calif.), L-glutamine, and penicillin/streptomycin (Life Technologies).

K562 = experiment: CTL assay, peptide-sensitized T cells against K562 (LAK control); assay type: cell-based, human; conditions: SCCHN Patient A T cells, target K562
Method: as §3
(§4) Cytotoxicity assays. 1-2×10^6 target cells were labeled with 50 mCi of Na2^51CrO4 (Amersham, Arlington Heights, Ill.) for 90 minutes at 37° C. The labeled cells were then washed three times and plated at 1×10^3 cells/well in a 96-well V-bottom plate (Costar, Cambridge, Mass.) with various numbers of effector T cells. […] Supernatants were harvested using a Skatron harvesting press (Skatron Instruments, Sterling, Va.) and counted on a Cobra II series auto gamma counting system (Packard, Meriden, Conn.). […] Percent specific lysis was calculated from the following formula: % specific lysis=100×(experimental release−spontaneous release)/(maximum release−spontaneous release).

[3] = system: PBMCs from HLA-A2+ breast cancer patients; experiment: IFN-γ ELISPOT, PBMCs of breast cancer patients with cyclin B1 peptides; assay type: cell-based, human
Method: as §1, §3

HLA-A2.1 = target: T1, HLA-A2.1 (Homo sapiens, UniProt P04439, D140Y/D185E/D98H/E176V/E277Q/G131W/G231S/I119V/I121R/I166T/I218V/L300P/L318F/N151K/N90K/P208A/P217A/Q86G/Q94H/R138H/R169H/T345S); experiment: HLA Class I stabilization assay on T2 cells; conditions: 20 mg/ml peptide, 18-20 hours, MA2.1 staining, >1 indicates binding
T1 construct: Peptide-induced stabilization of HLA-A2.1 molecules on T2 cells; endogenous in cells; host or cells: T2 cells
Method: HLA Class I stabilization assays. Peptide-induced stabilization of HLA-A2.1 molecules on T2 cells was done as previously described (Zeh et al., Hum. Immunol., 39(2), 79-86 (1994)). 2×10^5 T2 cells were incubated with […] of the indicated synthetic peptides in […] human B2m (Calbiochem, La Jolla, Calif.) for 18-20 hours at room temperature. The cells were then stained with the HLA-A2.1-specific antibody, MA2.1, for 45 minutes, washed with FACS Buffer (PBS, 5% FBS, and 0.01% sodium azide), and stained with a secondary FITC-conjugated anti-IgG antibody (Biosource International, Camarillo, Calif.). The cells were fixed in 4% formaldehyde prior to flow cytometry analysis. The negative control consisted of T2 cells without peptide. […] (SEQ ID NO:11). Flow cytometric analysis was done using a FACScan flow cytometer (Becton-Dickinson).

MS-A2/CD80 tumor = experiment: CTL assay, peptide-sensitized T cells against MS-A2/CD80; assay type: cell-based, human; conditions: SCCHN Patient A T cells, target MS-A2/CD80
Method: as §3, §4

MS-A2 tumor = experiment: CTL assay, peptide-sensitized T cells against MS-A2; assay type: cell-based, human; set-up: killing of the original tumor by peptide-specific T cells: dose or concentration left out as unconfirmed
Method: as §2
Stimulating CD8^+ T cells from breast cancer and SCCHN patients with cyclin B1 peptides in vitro. PBMCs from cancer patients were X-irradiated at 3000 Rads, loaded with […] of the indicated peptides for 2-4 hours, and mixed with autologous PBMCs in the presence of 20 U/ml IL-2 (DuPont). […]
Cytotoxicity assays. […] Supernatants were harvested using a Skatron harvesting press (Skatron Instruments, Sterling, Va.) and counted on a Cobra II series auto gamma counting system (Packard, Meriden, Conn.). […] Percent specific lysis was calculated from the following formula: % specific lysis=100×(experimental release−spontaneous release)/(maximum release−spontaneous release).

[4] = breast cancer Patient A, one in vitro stimulation
[5] = breast cancer Patient C, no in vitro stimulation
[6] = breast cancer Patient D, no in vitro stimulation

Sequence	antigen-specific IFN-γ secretion by CD8+ T cells [1]	HLA Class I-restricted T cell response, IFN-γ ELISPOT [2]	T cell response, IFN-γ ELISPOT [2]	T cell response, IFN-γ ELISPOT [3, 4]	T cell response, IFN-γ ELISPOT [3, 6]	HLA-A2.1 Binding (MFI of T2 cells loaded with peptide / MFI of T2 cells with no peptide) (HLA-A2.1) [X-Fold increase]	other results
AGYLMELCC (cyclin-derived polypeptide) [SEQ ID NO:4, tumor-derived cyclin B1 9-mer peptide]	detected	HLA Class I-restricted T cell responses	appeared specific	strong HLA Class I-restricted secondary T cell responses	strong HLA Class I-restricted T cell responses	1.61	blocking of the T cell response by anti-Class I antibody W6/32 ([1]; healthy donor): blocked; peptide-specific T cells, IFN-γ ELISPOT [2]: peptide-specific T cells also were detected; lysis by T cells sensitized to the peptide (K562): not; T cell response, IFN-γ ELISPOT [3, 5]: peptide-specific HLA Class I-restricted T cell responses; T cell response, IFN-γ ELISPOT ([3]; breast cancer Patients E and F): did not respond; lysis of tumor by T cells sensitized to the peptide (MS-A2/CD80 tumor): able to lyse; lysis of tumor by T cells sensitized to the peptide (MS-A2 tumor; SCCHN Patient A T cells, target MS-A2): to a lesser extent; killing of the original tumor by peptide-specific T cells (MS-A2 tumor; healthy donor T cells primed with high peptide concentration): unable to kill the original tumor
AGYLMELCF (cyclin-derived polypeptide) [SEQ ID NO:3, tumor-derived cyclin B1 9-mer peptide]	–	HLA Class I-restricted T cell responses	–	–	–	1.42	–
AGYLMELCFA (cyclin-derived polypeptide) [SEQ ID NO:6, tumor-derived cyclin B1 10-mer peptide]	not	–	–	–	–	2.08	–
AGYLMELCM (cyclin-derived polypeptide) [SEQ ID NO:2, tumor-derived cyclin B1 9-mer peptide]	not	not	–	–	–	1.48	blocking of the response with anti-Class I antibody [2]: could be blocked
AGYLMELCMA (cyclin-derived polypeptide) [SEQ ID NO:5, tumor-derived cyclin B1 10-mer peptide]	not	–	appeared specific	–	–	1.58	–
AGYLMELCV (cyclin-derived polypeptide) [SEQ ID NO:1, tumor-derived cyclin B1 9-mer peptide]	not	not	–	–	–	1.60	T cell response, IFN-γ ELISPOT ([3]; breast cancer Patient B (HLA-A*0206), two in vitro stimulations): weak secondary response
AKYLMELTM (cyclin-derived polypeptide) [SEQ ID NO:7, human (HeLa) cyclin B1 peptide from the database]	–	HLA Class I-restricted T cell responses	appeared specific	strong HLA Class I-restricted secondary T cell responses	lower responses	2.28	peptide-specific T cells, IFN-γ ELISPOT [2]: peptide-specific T cells also were detected; T cell response, IFN-γ ELISPOT [3, 5]: peptide-specific HLA Class I-restricted T cell responses; blocking of the response by anti-MHC Class I antibody ([3]; breast cancer Patient D): blocked; T cell response, IFN-γ ELISPOT ([3]; breast cancer Patients E and F): did not respond; lysis of tumor by T cells sensitized to the peptide (MS-A2/CD80 tumor): able to lyse
AKYLMELTML (cyclin-derived polypeptide) [SEQ ID NO:8, human (HeLa) cyclin B1 peptide from the database]	–	–	–	strong HLA Class I-restricted secondary T cell responses	–	2.25	blocking of the response with anti-Class I antibody [2]: could be blocked
ILKEPGSHV (HIV-POL-derived polypeptide) [reference compound]	not	–	–	no recognition	lower responses	–	–
